# From ChEMBL document CHEMBL1201862, “PubChem BioAssay data set” (2004)
# Where a name gives a salt, the structure may show the parent alone.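 Protocol summary: plate cells (96-well), add compound at 5 concentrations, incubate 48 h, interpolate endpoints linearly. The concentration for 50% growth inhibition is given as GI50.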 Active and inactive are the calls of the source. Rule as the data show it: active = GI50 up to about 1.1 µM and inactive = higher.
# Columns and labels:
# Test in all cases: NCI-60 cell line screen, 48 h
# SN12C = system: SN12C
# Hs-578T = system: Hs-578T
# UACC-62 = system: UACC-62
# MDA-MB-231 = system: MDA-MB-231
# OVCAR-8 = system: OVCAR-8
# NCI-H460 = system: NCI-H460
# DU-145 = system: DU-145
# SF-268 = system: SF-268
# MOLT-4 = system: MOLT-4
# MCF7 = system: MCF7
# SR = system: SR
# HCC 2998 = system: HCC 2998
# HCT-15 = system: HCT-15
# HCT-116 = system: HCT-116
# SF-539 = system: SF-539
# K562 = system: K562
# NCI/ADR-RES = system: NCI/ADR-RES
# NCI-H522 = system: NCI-H522
# OVCAR-5 = system: OVCAR-5
# RXF 393 = system: RXF 393
SMILES,GI50 (SN12C),GI50 (Hs-578T),GI50 (UACC-62),GI50 (MDA-MB-231),GI50 (OVCAR-8),GI50 (NCI-H460),GI50 (DU-145),GI50 (SF-268),GI50 (MOLT-4),GI50 (MCF7),GI50 (SR),GI50 (HCC 2998),GI50 (HCT-15) [µM],GI50 (HCT-116),GI50 (SF-539),GI50 (K562),GI50 (NCI/ADR-RES),GI50 (NCI-H522),GI50 (OVCAR-5),GI50 (RXF 393)
CCOC(=O)c1nc2ccccc2nc1Nc1ccc(Cl)c(Cl)c1,81.5 µM (inactive),34.4 µM (inactive),25.6 µM (inactive),> 100 µM (inactive),29.9 µM (inactive),11 µM (inactive),> 100 µM (inactive),37.6 µM (inactive),> 100 µM (inactive),70 µM (inactive),> 100 µM (inactive),> 100 µM (inactive),> 100,29 µM (inactive),60.5 µM (inactive),76.7 µM (inactive),> 100 µM (inactive),45.7 µM (inactive),> 100 µM (inactive),–
CC(=O)O[C@H]1CC[C@@]2(C)C(=CC[C@@H]3[C@@H]2CC[C@]2(C)c4nc(Cl)ccc4C[C@@H]32)C1,41.7 µM (inactive),–,18.2 µM (inactive),> 100 µM (inactive),37.2 µM (inactive),33.4 µM (inactive),80.4 µM (inactive),49.8 µM (inactive),30.8 µM (inactive),0.944 µM (active),37 µM (inactive),45 µM (inactive),40,32.6 µM (inactive),–,31.1 µM (inactive),47.4 µM (inactive),24.5 µM (inactive),38.1 µM (inactive),33.3 µM (inactive)
C=CCOCn1cnc2c(=O)[nH]c(N)nc21,> 100 µM (inactive),> 100 µM (inactive),> 100 µM (inactive),> 100 µM (inactive),> 100 µM (inactive),> 100 µM (inactive),> 100 µM (inactive),> 100 µM (inactive),> 100 µM (inactive),> 100 µM (inactive),> 100 µM (inactive),> 100 µM (inactive),> 100,> 100 µM (inactive),> 100 µM (inactive),> 100 µM (inactive),> 100 µM (inactive),–,> 100 µM (inactive),–
Cc1c2cccc-2c(OCCOC(=O)n2ccnc2)cc2c1[nH]c1ccccc12,2.58 µM (inactive),3.55 µM (inactive),2.62 µM (inactive),–,2.18 µM (inactive),3.9 µM (inactive),6.24 µM (inactive),2.6 µM (inactive),4.12 µM (inactive),3.24 µM (inactive),3.31 µM (inactive),2.82 µM (inactive),2.2,3.33 µM (inactive),–,4.01 µM (inactive),2.82 µM (inactive),2.14 µM (inactive),2.55 µM (inactive),2.57 µM (inactive)
CC(=O)Oc1ccc2c3c1O[C@H]1[C@H](O)CC[C@@]4(O)[C@@H](C2)N(C)CC[C@]314,> 100 µM (inactive),> 100 µM (inactive),> 100 µM (inactive),> 100 µM (inactive),> 100 µM (inactive),–,> 100 µM (inactive),> 100 µM (inactive),> 100 µM (inactive),> 100 µM (inactive),> 100 µM (inactive),–,> 100,> 100 µM (inactive),> 100 µM (inactive),–,> 100 µM (inactive),> 100 µM (inactive),> 100 µM (inactive),–
Cc1ccc(O)c(-c2cc(-c3ccccc3)nc(/N=C\c3ccccc3)n2)c1,42.9 µM (inactive),25.3 µM (inactive),8.17 µM (inactive),77.3 µM (inactive),20.4 µM (inactive),17.9 µM (inactive),> 100 µM (inactive),21.9 µM (inactive),18.2 µM (inactive),2.6 µM (inactive),59.4 µM (inactive),–,11.6,28.4 µM (inactive),29.6 µM (inactive),45.6 µM (inactive),21.5 µM (inactive),> 100 µM (inactive),> 100 µM (inactive),–
O=C(OCCN1CCCCCC1)C(c1ccsc1)C1CCCCC1 (centres undefined) [CETIEDIL CITRATE],17.9 µM (inactive),20.7 µM (inactive),–,16.7 µM (inactive),18.6 µM (inactive),16.2 µM (inactive),16.6 µM (inactive),17.6 µM (inactive),21.4 µM (inactive),16.7 µM (inactive),26.6 µM (inactive),15.2 µM (inactive),14.4,14.1 µM (inactive),16.8 µM (inactive),–,15.7 µM (inactive),–,17.3 µM (inactive),–
Cc1cc(S(=O)(=O)Nc2cc(N)n[nH]2)c(SCc2nc(N)nc(N(C)C)n2)cc1Cl,> 10 µM (inactive),> 10 µM (inactive),–,–,> 10 µM (inactive),> 10 µM (inactive),> 10 µM (inactive),> 10 µM (inactive),> 10 µM (inactive),> 10 µM (inactive),> 10 µM (inactive),> 10 µM (inactive),> 10,> 10 µM (inactive),> 10 µM (inactive),> 10 µM (inactive),> 10 µM (inactive),> 10 µM (inactive),> 10 µM (inactive),> 10 µM (inactive)
c1ccc2c(-c3ccnc(-c4c[nH]c5ccccc45)n3)c[nH]c2c1,2.78 µM (inactive),2.81 µM (inactive),1.95 µM (inactive),1.85 µM (inactive),5.93 µM (inactive),2.87 µM (inactive),12.4 µM (inactive),10.6 µM (inactive),1.87 µM (inactive),2.74 µM (inactive),4.25 µM (inactive),2.79 µM (inactive),3.19,4.36 µM (inactive),4.37 µM (inactive),4.13 µM (inactive),16.4 µM (inactive),–,> 100 µM (inactive),–
CC1(C)O[C@@H](CP(c2ccccc2)c2ccccc2)[C@H](CP(c2ccccc2)c2ccccc2)O1,4.11 µM (inactive),–,–,5.85 µM (inactive),4.06 µM (inactive),4.03 µM (inactive),11.7 µM (inactive),5.96 µM (inactive),2.69 µM (inactive),–,–,–,12.3,1.84 µM (inactive),7 µM (inactive),–,12.4 µM (inactive),2.38 µM (inactive),8.81 µM (inactive),8.15 µM (inactive)
COc1cc(COC(=O)N2CCC2C(=O)O)c([N+](=O)[O-])cc1OC (centres undefined),> 100 µM (inactive),> 100 µM (inactive),> 100 µM (inactive),–,> 100 µM (inactive),> 100 µM (inactive),> 100 µM (inactive),> 100 µM (inactive),> 100 µM (inactive),> 100 µM (inactive),> 100 µM (inactive),> 100 µM (inactive),> 100,> 100 µM (inactive),> 100 µM (inactive),> 100 µM (inactive),> 100 µM (inactive),–,> 100 µM (inactive),> 100 µM (inactive)
CC(C)OC(=O)NCCn1cc(-c2ccccc2)nn1,> 100 µM (inactive),–,–,> 100 µM (inactive),> 100 µM (inactive),> 100 µM (inactive),> 100 µM (inactive),> 100 µM (inactive),> 100 µM (inactive),> 100 µM (inactive),> 100 µM (inactive),> 100 µM (inactive),> 100,> 100 µM (inactive),> 100 µM (inactive),> 100 µM (inactive),> 100 µM (inactive),> 100 µM (inactive),> 100 µM (inactive),–
CCOC(=O)C1CCCCc2sc(N)c(C#N)c21 (centres undefined),> 100 µM (inactive),> 100 µM (inactive),> 100 µM (inactive),> 100 µM (inactive),> 100 µM (inactive),> 100 µM (inactive),–,–,> 100 µM (inactive),> 100 µM (inactive),> 100 µM (inactive),> 100 µM (inactive),> 100,> 100 µM (inactive),–,> 100 µM (inactive),–,–,> 100 µM (inactive),> 100 µM (inactive)
O=C(O)c1cccc(S(=O)(=O)NN2C(=O)CSC2c2ccc(Cl)cc2Cl)c1 (centres undefined),25.8 µM (inactive),19 µM (inactive),28.6 µM (inactive),43.5 µM (inactive),15.4 µM (inactive),41.3 µM (inactive),> 100 µM (inactive),36.2 µM (inactive),28.8 µM (inactive),32.1 µM (inactive),17.6 µM (inactive),> 100 µM (inactive),30.2,28.7 µM (inactive),19.5 µM (inactive),24 µM (inactive),–,24.7 µM (inactive),> 100 µM (inactive),37.2 µM (inactive)
NNC1=N/C(=C\c2ccco2)C(=O)N1,> 100 µM (inactive),–,33 µM (inactive),> 100 µM (inactive),> 100 µM (inactive),–,–,–,64.7 µM (inactive),> 100 µM (inactive),> 100 µM (inactive),44.3 µM (inactive),58.3,> 100 µM (inactive),> 100 µM (inactive),93.3 µM (inactive),> 100 µM (inactive),50.6 µM (inactive),> 100 µM (inactive),–
CCC(=O)NCC1CCCN2CCCCC12 (centres undefined),> 100 µM (inactive),> 100 µM (inactive),> 100 µM (inactive),> 100 µM (inactive),> 100 µM (inactive),> 100 µM (inactive),> 100 µM (inactive),> 100 µM (inactive),> 100 µM (inactive),> 100 µM (inactive),–,> 100 µM (inactive),> 100,> 100 µM (inactive),> 100 µM (inactive),> 100 µM (inactive),> 100 µM (inactive),–,–,> 100 µM (inactive)
